Laboratory results published in ChEMBL document CHEMBL2086273, “Significant activity of ecdysteroids on the resistance to doxorubicin in mammalian cancer cells expressing the human ABCB1 transporter” (J Med Chem, 2012).

Assays:
Type in all cases: cell-based
[1] = target: T1, ATP-dependent translocase ABCB1 (Homo sapiens, UniProt P08183); test: Inhibition of human ABCB1 expressed in mouse L5178 cells assessed as 95% inhibition of cell proliferation at compound-doxorubicin ratio of 81.5:1 after 48 hrs by MTT assay; details: l5178, 48 h
T1 sequence (P08183 whole entry): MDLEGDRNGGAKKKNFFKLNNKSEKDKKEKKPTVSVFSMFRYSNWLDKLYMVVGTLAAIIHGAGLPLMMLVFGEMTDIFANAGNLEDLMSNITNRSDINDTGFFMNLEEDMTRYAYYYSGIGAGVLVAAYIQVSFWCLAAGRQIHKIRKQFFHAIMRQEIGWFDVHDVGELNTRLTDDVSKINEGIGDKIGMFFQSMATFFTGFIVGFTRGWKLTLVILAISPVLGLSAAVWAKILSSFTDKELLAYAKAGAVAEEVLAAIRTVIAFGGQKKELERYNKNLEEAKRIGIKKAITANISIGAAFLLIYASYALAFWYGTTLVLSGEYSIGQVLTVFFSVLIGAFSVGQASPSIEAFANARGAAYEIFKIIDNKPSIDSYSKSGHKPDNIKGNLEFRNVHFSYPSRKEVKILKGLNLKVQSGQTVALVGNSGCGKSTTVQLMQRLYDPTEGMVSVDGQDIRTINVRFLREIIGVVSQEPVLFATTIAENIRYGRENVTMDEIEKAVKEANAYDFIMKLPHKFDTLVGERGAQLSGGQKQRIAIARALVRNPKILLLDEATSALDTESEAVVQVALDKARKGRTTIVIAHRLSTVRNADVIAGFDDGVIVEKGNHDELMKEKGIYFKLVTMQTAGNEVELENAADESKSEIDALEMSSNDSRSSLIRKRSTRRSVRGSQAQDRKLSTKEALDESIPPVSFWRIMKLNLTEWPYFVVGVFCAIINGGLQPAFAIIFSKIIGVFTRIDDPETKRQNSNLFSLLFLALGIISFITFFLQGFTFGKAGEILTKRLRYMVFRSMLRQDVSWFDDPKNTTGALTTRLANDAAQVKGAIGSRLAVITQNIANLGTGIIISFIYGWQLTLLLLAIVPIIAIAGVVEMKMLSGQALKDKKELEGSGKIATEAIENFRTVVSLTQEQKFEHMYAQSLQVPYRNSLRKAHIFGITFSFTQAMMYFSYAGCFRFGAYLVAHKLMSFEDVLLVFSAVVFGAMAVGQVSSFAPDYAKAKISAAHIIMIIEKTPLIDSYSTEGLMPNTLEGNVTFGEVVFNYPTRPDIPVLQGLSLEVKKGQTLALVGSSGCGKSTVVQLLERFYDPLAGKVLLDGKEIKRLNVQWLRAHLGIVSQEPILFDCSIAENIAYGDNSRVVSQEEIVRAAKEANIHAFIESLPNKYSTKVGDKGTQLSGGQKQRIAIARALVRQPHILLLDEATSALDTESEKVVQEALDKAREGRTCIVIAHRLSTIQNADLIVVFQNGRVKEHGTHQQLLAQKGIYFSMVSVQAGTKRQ

[2] = target: T1, ATP-dependent translocase ABCB1; test: Inhibition of human ABCB1 expressed in mouse L5178 cells assessed as 50% inhibition of cell proliferation at compound-doxorubicin ratio of 81.5:1 after 48 hrs by MTT assay; details: l5178, 48 h
[3] = target: T1, ATP-dependent translocase ABCB1; test: Inhibition of human ABCB1 expressed in mouse L5178 cells assessed as 75% inhibition of cell proliferation at compound-doxorubicin ratio of 81.5:1 after 48 hrs by MTT assay; details: l5178, 48 h
[4] = target: T1, ATP-dependent translocase ABCB1; test: Inhibition of human ABCB1 pump expressed in mouse L5178 cells assessed as fluorescence activity ratio at 20 uM for 10 mins by flow cytometry relative to control; details: l5178, 10 min

Row | SMILES | fractional inhibitory concentration index (FICI) [1] | fractional inhibitory concentration index (FICI) [2] | fractional inhibitory concentration index (FICI) [3] | Ratio [4]
1 | CC[C@H](C[C@H]1OC(C)(C)O[C@]1(C)[C@H]1CC[C@@]2(O)C3=CC(=O)[C@@H]4C[C@@H](O)[C@@H](O)C[C@]4(C)[C@H]3CC[C@]12C)C(C)(C)O | 0.091 | 0.81 | 0.26 | 1.21
2 | CC(C)(O)CC[C@H]1OC(C)(C)O[C@]1(C)[C@H]1CC[C@@]2(O)C3=CC(=O)[C@H]4C[C@@H](O)CC[C@]4(C)[C@H]3CC[C@]12C | 0.37 | 1.28 | 0.69 | 8.19
3 | CC(=O)[C@H]1CC[C@@]2(O)C3=CC(=O)[C@@H]4C[C@@H](O)[C@@H](O)C[C@]4(C)C3=CC[C@]12C | 0.37 | 1.21 | 0.67 | 5.4
4 | CC(=O)O[C@H](CCC(C)(C)O)[C@](C)(O)[C@H]1CC[C@@]2(O)C3=CC(=O)[C@@H]4C[C@@H](O)[C@@H](O)C[C@]4(C)[C@H]3CC[C@]12C | 0.64 | 1.6 | 0.97 | 1.54
5 | CC(C)(CC[C@@H](O)[C@](C)(O)[C@H]1CC[C@@]2(O)C3=CC(=O)[C@@H]4C[C@@H](O)CC[C@]4(C)[C@H]3CC[C@]12C)O[C@@H]1O[C@H](CO)[C@@H](O)[C@H](O)[C@H]1O | 0.51 | 1.05 | 0.72 | 0.68
6 | CC(C)(O)CC[C@@H](O)[C@](C)(O)[C@H]1CC[C@@]2(O)C3=CC(=O)[C@@H]4C[C@@H](O)[C@@H](O)C[C@]4(C)C3=CC[C@]12C | 4.61 | 2.66 | 3.35 | 1.24
7 | CCC1=C(C)C(=O)O[C@@H]([C@](C)(O)[C@H]2CC[C@@]3(O)C4=CC(=O)[C@@H]5C[C@@H](O)[C@@H](O)C[C@]5(C)[C@H]4CC(=O)[C@]23C)C1 [AJUGALACTONE] | 2.89 | 1.43 | 1.96 | 0.87
8 | CC(C)CC[C@@H](O)[C@](C)(O)[C@H]1CC[C@@]2(O)C3=CC(=O)[C@]4(O)C[C@@H](O)[C@@H](O)C[C@]4(C)[C@H]3[C@H](O)C[C@]12C [MURISTERONE A] | – | – | – | 0.74
9 | CC(=O)O[C@H]1C[C@]2(C)[C@H]3CC[C@]4(C)[C@@H]([C@@](C)(O)[C@@H](CCC(C)(C)OC(C)=O)OC(C)=O)CC[C@@]4(O)C3=CC(=O)[C@]2(O)C[C@H]1OC(C)=O | 0.38 | 0.65 | 0.46 | 1.48
10 | CC(C)(O)CC[C@@H](O)[C@](C)(O)[C@H]1CC[C@@]2(O)C3=CC(=O)[C@@H]4C[C@@H](O)[C@@H](O)[C@@H](O)[C@]4(C)[C@H]3CC[C@]12C [INTEGRISTERONE A] | 2.42 | 0.8 | 1.31 | 0.94
11 | CC(C)(O)CC[C@@H](O)[C@](C)(O)[C@H]1CC[C@@]2(O)C3=CC(=O)[C@H]4C[C@@H](O)[C@@H](O)C[C@]4(C)[C@H]3CC[C@]12C | 0.37 | 0.99 | 0.57 | 0.81
12 | CC(C)(O)CCC[C@](C)(O)[C@H]1CC[C@@]2(O)C3=CC(=O)[C@@H]4C[C@@H](O)[C@@H](O)C[C@]4(C)[C@H]3CC[C@]12C | 1.59 | 2.04 | 1.75 | 0.67
